Laboratory results from patent US10034861B2 (priority 2016, dated 2018).
Read-outs that look alike come from different tables or passages of the source.

Columns and labels:
PDE1C = PDE1C (Homo sapiens (Human), UniProt Q14123); assay: biochemical; format: biochemical
Source text: (§1) Table 1 lists the IC50 value for inhibition of PDE1 by the compounds of the invention. […] PDE1 assays are described in the Experimental Section.

PDE1A = PDE1A (Homo sapiens (Human), UniProt P54750); assay: biochemical; format: biochemical; details: 15 nM tritium labelled cAMP, 1 hr at room temperature, SPA beads
Sequence of PDE1A (P54750 whole entry): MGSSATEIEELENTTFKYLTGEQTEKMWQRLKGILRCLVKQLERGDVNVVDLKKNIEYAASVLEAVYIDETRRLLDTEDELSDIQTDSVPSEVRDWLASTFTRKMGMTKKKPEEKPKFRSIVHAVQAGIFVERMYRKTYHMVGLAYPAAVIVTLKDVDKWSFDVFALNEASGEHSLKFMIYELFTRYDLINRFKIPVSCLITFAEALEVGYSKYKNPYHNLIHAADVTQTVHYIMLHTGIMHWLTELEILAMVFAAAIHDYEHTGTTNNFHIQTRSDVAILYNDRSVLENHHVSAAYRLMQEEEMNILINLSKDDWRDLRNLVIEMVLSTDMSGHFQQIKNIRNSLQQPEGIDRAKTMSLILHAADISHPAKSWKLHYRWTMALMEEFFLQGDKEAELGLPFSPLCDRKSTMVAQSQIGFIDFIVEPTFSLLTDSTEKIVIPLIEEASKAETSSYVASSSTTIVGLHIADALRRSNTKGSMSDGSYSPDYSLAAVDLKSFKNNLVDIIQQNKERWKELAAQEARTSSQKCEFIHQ
Source text: as §1

[1] = 15 nM tritium labelled cAMP, 1 hr at room temperature, SPA beads

Sequence of PDE1C (Q14123 whole entry): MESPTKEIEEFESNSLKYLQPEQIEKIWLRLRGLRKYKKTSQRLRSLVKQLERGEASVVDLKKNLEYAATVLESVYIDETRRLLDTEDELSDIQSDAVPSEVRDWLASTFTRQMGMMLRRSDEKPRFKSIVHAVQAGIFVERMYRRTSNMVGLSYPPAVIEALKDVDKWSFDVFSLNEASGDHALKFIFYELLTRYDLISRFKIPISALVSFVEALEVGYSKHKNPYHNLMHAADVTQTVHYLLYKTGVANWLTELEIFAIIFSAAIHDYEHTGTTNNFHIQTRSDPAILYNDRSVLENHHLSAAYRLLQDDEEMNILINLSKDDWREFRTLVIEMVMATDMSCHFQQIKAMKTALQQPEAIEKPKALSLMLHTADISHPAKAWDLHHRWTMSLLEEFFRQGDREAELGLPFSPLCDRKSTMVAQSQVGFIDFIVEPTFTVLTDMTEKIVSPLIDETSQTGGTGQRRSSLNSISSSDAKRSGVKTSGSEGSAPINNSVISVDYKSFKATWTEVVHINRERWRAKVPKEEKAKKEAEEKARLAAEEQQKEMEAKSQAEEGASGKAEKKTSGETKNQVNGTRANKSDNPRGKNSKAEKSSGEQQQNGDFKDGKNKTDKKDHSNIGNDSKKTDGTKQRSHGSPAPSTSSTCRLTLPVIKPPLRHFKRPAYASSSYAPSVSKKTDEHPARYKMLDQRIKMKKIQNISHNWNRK

SMILES	IC50 (PDE1C; [1]) [nM]	IC50 (PDE1A) [nM]	IC50 (PDE1C) [nM]
CCCn1cc(CNc2cc(-c3cccnc3OCC)nc3c(C)nn(C(C)C)c23)cn1 [Example 110, 5-(2-ethoxy-3-pyridyl)-1-isopropyl-3-methyl-N-[(1-propylpyrazol-4-yl)methyl]pyrazolo[4,3-b]pyridin-7-amine]	8.5	11	–
CCOc1ncccc1-c1cc(NCc2noc(C)n2)c2c(cnn2C(C)C)n1 [Example 43, 5-(2-ethoxy-3-pyridyl)-1-isopropyl-N-[(5-methyl-1,2,4-oxadiazol-3-yl)methyl]pyrazolo[4,3-b]pyridin-7-amine]	80	30	–
CCOc1ncccc1-c1cc(NCc2nnn(C)n2)c2c(n1)c(C)nn2C(C)C [Example 8, 5-(2-ethoxy-3-pyridyl)-1-isopropyl-3-methyl-N-[(2-methyltetrazol-5-yl)methyl]pyrazolo[4,3-b]pyridin-7-amine]	8.9	2.9	–
CCOc1ncccc1-c1cc(NCc2nncn2C)c2c(n1)c(C)nn2C(C)C [Example 162, 5-(2-ethoxy-3-pyridyl)-1-isopropyl-3-methyl-N-[(4-methyl-1,2,4-triazol-3-yl)methyl]pyrazolo[4,3-b]pyridin-7-amine]	180	100	–
CCCOc1ncccc1-c1cc(NCc2cc[nH]n2)c2c(n1)c(C)nn2C(C)CC (single isomer, unassigned) [Example 135, 3-methyl-1-[1-methylpropyl]-5-(2-propoxy-3-pyridyl)-N-(1H-pyrazol-3-ylmethyl)pyrazolo[4,3-b]pyridin-7-amine]	3.6	1.9	–
CCC1COC(=O)N1c1cc(NCc2cnn(C)c2)c2c(n1)c(C)nn2C(C)C (centres unmarked) [Example 156, 4-ethyl-3-[1-isopropyl-3-methyl-7-[(1-methylpyrazol-4-yl)methylamino]pyrazolo[4,3-b]pyridin-5-yl]oxazolidin-2-one]	5.1	–	–
CCOc1ncccc1-c1cc(NCc2csc(C)n2)c2c(n1)c(C)nn2C(C)C [Example 11, 5-(2-ethoxy-3-pyridyl)-1-isopropyl-3-methyl-N-[(2-methylthiazol-4-yl)methyl]pyrazolo[4,3-b]pyridin-7-amine]	30	9.6	–
CCOc1ncccc1-c1cc(NCc2nnc(C)o2)c2c(cnn2C(C)CC)n1 (single isomer, unassigned) [Example 139, 5-(2-ethoxy-3-pyridyl)-N-[(5-methyl-1,3,4-oxadiazol-2-yl)methyl]-1-[1-methylpropyl]pyrazolo[4,3-b]pyridin-7-amine]	–	330	530
CCOc1ncccc1-c1cc(NCc2cc(C)no2)c2c(n1)c(C)nn2C(C)C [Example 10, 5-(2-ethoxy-3-pyridyl)-1-isopropyl-3-methyl-N-[(3-methylisoxazol-5-yl)methyl]pyrazolo[4,3-b]pyridin-7-amine]	14	4.1	–
CCOc1ncccc1-c1cc(NCc2cc(C)no2)c2c(cnn2C(C)C)n1 [Example 42, 5-(2-ethoxy-3-pyridyl)-1-isopropyl-N-[(3-methylisoxazol-5-yl)methyl]pyrazolo[4,3-b]pyridin-7-amine]	180	82	–
CCOc1ncccc1-c1cc(NCc2cnc(C)o2)c2c(n1)c(C)nn2C(C)C [Example 4, 5-(2-ethoxy-3-pyridyl)-1-isopropyl-3-methyl-N-[(2-methyloxazol-5-yl)methyl]pyrazolo[4,3-b]pyridin-7-amine]	19	8.6	–
CCOc1ncccc1-c1cc(NCc2cc[nH]n2)c2c(n1)c(C)nn2C(C)CC (single isomer, unassigned) [Example 120, 5-(2-ethoxy-3-pyridyl)-3-methyl-1-[1-methylpropyl]-N-(1H-pyrazol-3-ylmethyl)pyrazolo[4,3-b]pyridin-7-amine]	–	–	7.6
COc1ncccc1CNc1cc(-c2cccnc2OC)nc2c(C)nn(C(C)C)c12 [Example 95, 1-isopropyl-5-(2-methoxy-3-pyridyl)-N-[(2-methoxy-3-pyridyl)methyl]-3-methyl-pyrazolo[4,3-b]pyridin-7-amine]	–	42	–
